Results reported in ChEMBL document CHEMBL1201862, “PubChem BioAssay data set” (2004).
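Where inhibition never reached the appropriate level, the endpoint shown equals the highest concentration tested. Otherwise, values were interpolated linearly from a five-concentration, 48-hour dose response in 96-well plates. Here, GI50 denotes the concentration required for 50% inhibition of growth.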 Activity calls are given as the source filed them. Rule as the data show it: active = GI50 up to about 1.1 µM and inactive = higher.

Experiments:
Experiment in all cases: inhibition of tumour cell growth, NCI panel, 48 h
CAKI-1 = tested on: CAKI-1
SF-295 = tested on: SF-295
A498 = tested on: A498
SK-MEL-28 = tested on: SK-MEL-28
SR = tested on: SR
DU-145 = tested on: DU-145
TK-10 = tested on: TK-10
MDA-MB-435 = tested on: MDA-MB-435
SNB-19 = tested on: SNB-19
MOLT-4 = tested on: MOLT-4
NCI-H522 = tested on: NCI-H522
UO-31 = tested on: UO-31
OVCAR-4 = tested on: OVCAR-4
HCT-15 = tested on: HCT-15
NCI/ADR-RES = tested on: NCI/ADR-RES
RPMI-8226 = tested on: RPMI-8226
SW-620 = tested on: SW-620
MDA-N = tested on: MDA-N
IGROV-1 = tested on: IGROV-1
SF-268 = tested on: SF-268
SK-MEL-2 = tested on: SK-MEL-2
EKVX = tested on: EKVX
HL-60 = tested on: HL-60
OVCAR-5 = tested on: OVCAR-5
Malme-3M = tested on: Malme-3M
HCT-116 = tested on: HCT-116
ACHN = tested on: ACHN
SF-539 = tested on: SF-539
OVCAR-8 = tested on: OVCAR-8
HOP-62 = tested on: HOP-62
BT-549 = tested on: BT-549
U-251 = tested on: U-251
A549 = tested on: A549
OVCAR-3 = tested on: OVCAR-3
NCI-H23 = tested on: NCI-H23
COLO 205 = tested on: COLO 205
T47D = tested on: T47D
SK-OV-3 = tested on: SK-OV-3
Hs-578T = tested on: Hs-578T
UACC-62 = tested on: UACC-62
SK-MEL-5 = tested on: SK-MEL-5
HT-29 = tested on: HT-29
SN12C = tested on: SN12C
NCI-H226 = tested on: NCI-H226
MDA-MB-231 = tested on: MDA-MB-231
PC-3 = tested on: PC-3
KM12 = tested on: KM12
786-0 = tested on: 786-0
MCF7 = tested on: MCF7
M14 = tested on: M14

Measured: GI50

CC(C)N(C(=O)C1(O)c2ccccc2C=Cc2ccccc21)C(C)C
inactive: CAKI-1 24.7 µM | SF-295 17.8 µM | A498 16.3 µM | SK-MEL-28 17.2 µM | SR 23.3 µM | DU-145 17.9 µM | TK-10 18 µM | MDA-MB-435 30.1 µM | SNB-19 19.9 µM | MOLT-4 23.7 µM | NCI-H522 12.5 µM | UO-31 21.1 µM | OVCAR-4 22.5 µM | NCI/ADR-RES 18.2 µM | RPMI-8226 35.9 µM | SW-620 17.3 µM | MDA-N 19.3 µM | IGROV-1 14.8 µM | SF-268 21.5 µM | SK-MEL-2 17.1 µM | EKVX 16.6 µM | HL-60 1.92 µM | OVCAR-5 14.4 µM | Malme-3M 17.6 µM | HCT-116 17.5 µM | ACHN 16.1 µM | SF-539 18.7 µM | OVCAR-8 16.9 µM | HOP-62 19.2 µM | BT-549 18.8 µM | U-251 16.8 µM | A549 19.9 µM | OVCAR-3 16.9 µM | NCI-H23 17.6 µM | COLO 205 19.3 µM | T47D 16.6 µM | SK-OV-3 25.3 µM | Hs-578T 45.9 µM | UACC-62 15.4 µM | SK-MEL-5 16.3 µM | HT-29 15.3 µM | SN12C 16.3 µM | NCI-H226 19.3 µM | MDA-MB-231 15.7 µM | PC-3 15.5 µM | KM12 22.9 µM | 786-0 20.6 µM | MCF7 17.3 µM | M14 19 µM
21.1 µM: HCT-15
